Measured values as given in patent US10815213B2, “Bruton's tyrosine kinase inhibitors” (Pfizer Inc., priority 2013, dated 2020).

Assays:
[1] = biological target: human full-length BTK Kinase (Homo sapiens (Human), UniProt Q06187); experiment: Human BTK LanthaScreen Assay (TR-FRET); assay type: biochemical; settings: 50 μM ATP, 70 pM BTK, 100 nM FAM-Srctide; run with and without 60 minutes pre-incubation (table does not say which); read-out: BTK Inhibition IC50
human EGFR kinase domain = human EGFR kinase domain (Homo sapiens (Human), UniProt P00533); experiment: Human EGFR LanthaScreen Selectivity Assay (TR-FRET); assay type: biochemical; settings: 20 μM ATP, 600 pM EGFR kinase domain; run with and without 60 minutes pre-incubation
Experimental: The kinase reaction mixtures were incubated at room temperature for 60 minutes before stopping the kinase activity by the addition of 15 mM EDTA. The extent of peptide phosphorylation by EGFR was detected using a Terbium-conjugated anti-phospho-Tyrosine antibody (Tb-PT66 antibody, Invitrogen # PV3557).

Human B cells = experiment: Human Primary B Cell Proliferation Assay; assay type: cell-based; settings: 50 μg/mL anti-human IgM F(ab')2 for 72 hours, 3H-thymidine incorporation
Experimental: Human B cells were purified from buffy coats using the human B cell RosetteSep kit per manufacturer's instructions. Purified cells were resuspended in RPMI-10% HIFCS, 2 mM L-glutamine, 100 U/mL penicillin, 100 μg/ml streptomycin, incubated with compounds for 1 hour at 37° C. and then stimulated with 50 μg/mL anti-human IgM F(ab′)2 for 72 hours. ^3H-thymidine was included in the culture media for the final 8-16 hours. Cells were harvested and ^3H-thymidine incorporation was measured.

Sequence of human full-length BTK Kinase (Q06187 whole entry, the tested form may be a part): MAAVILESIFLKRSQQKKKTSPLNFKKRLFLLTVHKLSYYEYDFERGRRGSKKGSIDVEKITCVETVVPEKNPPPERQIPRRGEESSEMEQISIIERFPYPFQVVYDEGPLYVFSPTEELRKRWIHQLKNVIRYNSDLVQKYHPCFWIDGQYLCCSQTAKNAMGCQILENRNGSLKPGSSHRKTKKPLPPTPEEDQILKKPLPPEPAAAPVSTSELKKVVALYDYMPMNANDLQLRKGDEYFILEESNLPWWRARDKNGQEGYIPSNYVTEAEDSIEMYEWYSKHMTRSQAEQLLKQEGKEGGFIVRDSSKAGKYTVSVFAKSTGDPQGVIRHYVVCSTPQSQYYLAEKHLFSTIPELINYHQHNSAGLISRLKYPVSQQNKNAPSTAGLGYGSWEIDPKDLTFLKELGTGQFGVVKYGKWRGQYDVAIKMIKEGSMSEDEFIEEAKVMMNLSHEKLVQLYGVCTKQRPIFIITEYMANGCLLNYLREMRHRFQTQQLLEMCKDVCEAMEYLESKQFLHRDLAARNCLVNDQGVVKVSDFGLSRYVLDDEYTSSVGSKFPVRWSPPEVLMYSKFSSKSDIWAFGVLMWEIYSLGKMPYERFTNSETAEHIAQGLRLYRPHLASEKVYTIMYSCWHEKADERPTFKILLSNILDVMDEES
Sequence of human EGFR kinase domain (P00533 712-979): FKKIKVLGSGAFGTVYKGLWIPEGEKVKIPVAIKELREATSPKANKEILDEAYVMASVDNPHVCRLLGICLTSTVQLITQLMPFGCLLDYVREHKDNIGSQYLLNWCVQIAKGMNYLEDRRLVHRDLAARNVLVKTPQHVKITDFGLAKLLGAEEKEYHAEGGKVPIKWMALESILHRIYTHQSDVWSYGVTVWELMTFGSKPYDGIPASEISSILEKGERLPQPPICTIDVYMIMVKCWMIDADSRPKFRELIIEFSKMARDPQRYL

Compound | IC50 [1] [nM] | IC50 (human EGFR kinase domain) [nM] | IC50 (Human B cells) [nM]
NC(=O)c1c(-c2ccc(Oc3ccc(Cl)cc3)cc2)nn([C@@H]2CCCN(C(=O)/C=C/CO)C2)c1N [Example 131, 5-amino-3-[4-(4-chlorophenoxy)phenyl]-1-{(3R)-1-[(2E)-4-hydroxybut-2-enoyl]piperidin-3-yl}-1H-pyrazole-4-carboxamide] | 2.3 | 2200 | 
NC(=O)c1c(-c2ccc(Oc3ccc(Cl)cc3)cc2)nn([C@@H]2CCCN(C(=O)/C=C/CF)C2)c1N [Example 132, 5-amino-3-[4-(4-chlorophenoxy)phenyl]-1-{(3R)-1-[(2E)-4-fluorobut-2-enoyl]piperidin-3-yl}-1H-pyrazole-4-carboxamide] | 1.1 |  | 
NC(=O)c1c(-c2ccc(Oc3ccc(F)cc3F)cc2)nn([C@@H]2CCCN(C(=O)/C=C/CF)C2)c1N [Example 145, 5-amino-3-[4-(2,4-difluorophenoxy)phenyl]-1-{(3R)-1-[(2E)-4-fluorobut-2-enoyl]piperidin-3-yl}-1H-pyrazole-4-carboxamide] | 2.8 | 2180 | 
NC(=O)c1c(-c2ccc(Oc3ccc(F)cc3F)cc2)nn([C@@H]2CCCN(C(=O)/C(F)=C/CO)C2)c1N [Example 146, 5-amino-3-[4-(2,4-difluorophenoxy)phenyl]-1-{(3R)-1-[(2Z)-2-fluoro-4-hydroxybut-2-enoyl]piperidin-3-yl}-1H-pyrazole-4-carboxamide] | 48 |  | 
CC(C)(O)/C=C/C(=O)N1CCC[C@@H](n2nc(-c3ccc(Oc4ccc(F)cc4F)cc3)c(C(N)=O)c2N)C1 [Example 147, 5-amino-3-[4-(2,4-difluorophenoxy)phenyl]-1-{(3R)-1-[(2E)-4-hydroxy-4-methylpent-2-enoyl]piperidin-3-yl}-1H-pyrazole-4-carboxamide] | 241 |  | 
C[C@H](O)/C=C/C(=O)N1CCC[C@@H](n2nc(-c3ccc(Oc4ccc(F)cc4F)cc3)c(C(N)=O)c2N)C1 [Example 148, 5-amino-3-[4-(2,4-difluorophenoxy)phenyl]-1-{(3R)-1-[(2E,4S)-4-hydroxypent-2-enoyl]piperidin-3-yl}-1H-pyrazole-4-carboxamide] | 39 |  | 
C[C@@H](O)/C=C/C(=O)N1CCC[C@@H](n2nc(-c3ccc(Oc4ccc(F)cc4F)cc3)c(C(N)=O)c2N)C1 [Example 149, 5-amino-3-(4-(2,4-difluorophenoxy)phenyl)-1-((R)-1-((R,E)-4-hydroxypent-2-enoyl)piperidin-3-yl)-1H-pyrazole-4-carboxamide] | 52 |  | 
NC(=O)c1c(-c2ccc(Oc3ccc(F)cc3F)cc2)nn([C@@H]2CCCN(C(=O)/C=C/CO)C2)c1N [Example 151, 5-amino-3-[4-(2,4-difluorophenoxy)phenyl]-1-{(3R)-1-[(2E)-4-hydroxybut-2-enoyl]-piperidin-3-yl}-1H-pyrazole-4-carboxamide] | 2.3 | 12100 | 
N#C/C=C/C(=O)N1CCC[C@@H](n2nc(-c3ccc(Oc4ccc(F)cc4F)cc3)c(C(N)=O)c2N)C1 [Example 152, 5-amino-1-{(3R)-1-[(2E)-3-cyanoprop-2-enoyl]piperidin-3-yl}-3-[4-(2,4-difluorophenoxy)phenyl]-1H-pyrazole-4-carboxamide] | 1.5 |  | 
NC(=O)c1c(-c2ccc(Oc3ncc(Cl)cc3F)cc2)nn([C@@H]2CCCN(C(=O)/C=C/CO)C2)c1N [Example 154, 5-amino-3-{4-[(5-chloro-3-fluoropyridin-2-yl)oxy]phenyl}-1-{(3R)-1-[(2E)-4-hydroxybut-2-enoyl]piperidin-3-yl}-1H-pyrazole-4-carboxamide] | 49 |  | 
NC(=O)c1c(-c2ccc(Oc3ncc(Cl)cc3F)cc2)nn([C@@H]2CCCN(C(=O)/C=C/C(F)F)C2)c1N [Example 155, 5-amino-3-{4-[(5-chloro-3-fluoropyridin-2-yl)oxy]phenyl}-1-{(3R)-1-[(2E)-4,4-difluorobut-2-enoyl]piperidin-3-yl}-1H-pyrazole-4-carboxamide] | 0.7 | 106 | 2
NC(=O)c1c(-c2ccc(Oc3ncc(Cl)cc3F)cc2)nn([C@@H]2CCCN(C(=O)/C=C/CF)C2)c1N [Example 156, 5-amino-3-{4-[(5-chloro-3-fluoropyridin-2-yl)oxy]phenyl}-1-{(3R)-1-[(2E)-4-fluorobut-2-enoyl]piperidin-3-yl}-1H-pyrazole-4-carboxamide] | 1.4 | 381 | 
